Assays:
Plasma stability = format: in vitro ADME, mouse; conditions: fresh mouse plasma, 5 µM; for half-life at 5 µM: pooled mouse plasma, duplicates
Experimental: Incubations of test compound (5 µM initial concentration, n = 2) were carried out with pooled mouse plasma or BSA (45 mg/mL in 0.1 M phosphate buffered saline). The incubations were performed at 37°C. Samples (50 µL) were obtained from the incubation at 0, 10, 30, 120, 240, 360 and 1440 min, and added to 150 µL of acetonitrile containing carbamazepine as analytical internal standard to terminate the reaction. Samples were centrifuged and the supernatant fractions analysed by LC-MS/MS.
For half-life determinations, the instrument responses (peak areas) normalized for internal standard response, were referenced to the zero time-point samples (as 100%) in order to determine the percentage of compound remaining. Ln plots of the % remaining, for each compound, were used to determine the half-life for the plasma incubations. Half-life values were calculated from the relationship:-. [drawing 1] Where λ was the slope of the natural logarithmic (Ln) concentration vs time curve.
When quantification was required, calibration standards for parent compound and metabolites were prepared in control plasma and extracted and analysed as described for the study samples. Quantification of parent compound or metabolite was by extrapolation from the calibration line.

R6/2^300Q mice = tested on: R6/2^300Q mice; parameters: method as in PMID 18829438; conditions: cited from earlier work
HDAC3-NcoR2 = biological target: T1, HDAC3-NcoR2 (Homo sapiens, UniProt O15379); test: Two-step fluorogenic deacetylase assay, recombinant HDAC3; format: biochemical
T1 construct: purified recombinant human full length HDAC1 (cat# 50051), HDAC2 (cat# 50052), HDAC3-NcoR2 (cat# 50003); purchased BPS Bioscience (San Diego, CA) 50003
T1 sequence (O15379 whole entry): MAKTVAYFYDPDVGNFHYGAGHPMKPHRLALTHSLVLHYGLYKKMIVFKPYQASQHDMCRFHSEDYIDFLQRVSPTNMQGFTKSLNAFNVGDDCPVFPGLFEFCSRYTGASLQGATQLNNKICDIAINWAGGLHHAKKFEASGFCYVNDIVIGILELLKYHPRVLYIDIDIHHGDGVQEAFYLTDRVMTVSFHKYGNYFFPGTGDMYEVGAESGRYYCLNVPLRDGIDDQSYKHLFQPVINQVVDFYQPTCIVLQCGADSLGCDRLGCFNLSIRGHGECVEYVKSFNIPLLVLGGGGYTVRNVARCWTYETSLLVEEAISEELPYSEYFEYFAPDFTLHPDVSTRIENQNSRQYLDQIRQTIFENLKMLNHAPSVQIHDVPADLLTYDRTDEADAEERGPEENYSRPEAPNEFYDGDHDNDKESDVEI
T1 sequence (Q9Y618 395-489 partner limits assumed): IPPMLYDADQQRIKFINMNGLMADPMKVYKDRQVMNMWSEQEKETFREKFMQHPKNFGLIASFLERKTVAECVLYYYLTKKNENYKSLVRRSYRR
Experimental: As described, the length of compound-enzyme incubation has been reported to be critical for this class of HDAC inhibitors, where a unique time-dependent increase in affinity and subsequent potency has been observed [36]–[38]. […] To better mimic physiological conditions, our experiments were performed at 37°C as opposed to room temperature as reported in previous studies. […] To confirm that this shift was independent of the time of 4b in aqueous solution, 4b was applied immediately to the enzyme-substrate mix both after preparing in aqueous buffer, and 120 min after preparation.
To assess the biochemical and cellular potency of 4b and its conversion products/metabolites, we utilized the two-step fluorogenic assay which measures the HDAC-mediated catalytic conversion of synthetic acetylated lysine substrates. In brief, on deacetylation of the substrates by HDAC activity, a protease site is unmasked which allows subsequent trypsin-mediated cleavage and release of the highly flourescent AMC molecules in a subsequent step of the assay. The substrates used were Lys_Ac_AMC (Bachem I-1875) for HDAC3 and (Ac)Arg-Gly-Lys(Ac) (Bachem I-1925) for HDAC1 and HDAC2. The final substrates used for each enzyme assessment were carefully selected after assessing the catalytic turnover of each of these substrates against HDAC1, HDAC2 and HDAC3 respectively, and selecting the ones that performed best. To assess Class IIa enzyme activity (HDAC4, 5, 7, 9) and Class I HDAC8 activity, we used the alternative substrate Boc_Lys_TFA (Bachem I-1985), equivalent to substrate 4 of [42]. Class IIa HDACs have approximately 1000-fold less catalytic activity than Class 1 enzymes, and show only extremely low turnover of acetylated substrates due to a Tyr to His mutation in the active site. However, the relatively labile and sterically more demanding trifluoracetyl group is readily hydrolyzed by the catalytically less avid Class IIa enzymes, allowing measurement of Class IIa activity using the 2-step fluorogenic assay. Intriguingly the Boc_Lys_TFA substrate seems to show almost total selectivity for Class IIa enzymes over class I and Class IIb enzymes, with the exception of HDAC8 ([42], and internal data).
For evaluation of the class selectivity of the compounds, we assessed inhibition against purified recombinant human full length HDAC1 (cat# 50051), HDAC2 (cat# 50052), HDAC3-NcoR2 (cat# 50003) and HDAC8 (cat# 50008): as representative of Class I activity; catalytic domain HDAC4(αα 648–1057), HDAC5 (αα 657–1123; cat # 50005), HDAC7 (αα 518-end; cat # 50007) and HDAC9 (αα 604–1066; cat # 50009) activity: representing all Class IIa activity; and full length HDAC6 (cat#50006): representing Class IIb activity. With the exception of purified catalytic domain HDAC4, which was prepared for us by Emerald Biosciences (Seattle, WA), all HDAC enzymes were purchased from BPS Bioscience (San Diego, CA).
Unless otherwise stated in the text, assays were run in the following format in 384-well plates using automated liquid handling procedures. Briefly, frozen enzyme stock and compounds were diluted in assay buffer (50 mM Tris-HCl, 137 mM NaCl, 2.7 mM KCl, 1 mM MgCl2 at pH 8.0) and added to plates at concentrations sufficient to achieve a 16-point concentration-response curve from 50 µM to 1 nM at 1% DMSO final concentration, after addition of all reagents. Substrate diluted in assay buffer was then added and plates were incubated after brief shaking for 60 min at 37°C. Following incubation, a developer/stop-step was introduced to terminate the reaction and cleave the fluorescent substrate: either the addition of trypsin with 10 µM Compound 26 [44] for the Class IIa enzymes, or trypsin with 5 µM Trichostatin A (TSA) for the Class I/IIb enzymes. Plates were briefly shaken and then returned to the incubator for a further 60 min, followed by measurement of fluorescence per well (Ex 355 nm, Em 460 nm) on a Perkin Elmer EnVision. […]

AR (h) = test: Cerep binding, agonist radioligand; parameters: species or system human; conditions: 10 μM
From the text: In addition to the HDAC profiling performed, we also queried 4b for any apparent potential off-target effects, which could complicate any finding of efficacy or adverse events in vivo due to ‘polypharmacy’. This was accomplished by screening against a ‘diversity panel’ of 72 binding and 29 enzyme assays, comprised of roughly equal numbers of selective central and peripheral therapeutically relevant targets (Cerep Diversity Profile). This panel included representative targets from diverse enzyme families, G protein coupled receptors, steroid nuclear receptors, voltage- and ligand-gated ion channels. While not totally inclusive, it is a useful tool for discovery compounds to assess their viability as proof of concept molecules to specifically query a particular target. 4b was initially screened at 10 µM in duplicate. The full set of results is provided as Table S1. […] This clean in vitro profile was considered acceptable to proceed to ADME and pharmacokinetic studies.

% inhibition of control specific binding (AR (h)) [%]	Compound	time to complete conversion to amide hydrolysis products (M1 and M2) (Plasma stability) [h]	half-life at 5 µM (Plasma stability) [h]	gene expression abnormalities (R6/2^300Q mice; 150 mg/kg subcutaneous once daily for 3 days)	motor performance and appearance in chronic efficacy study (R6/2^300Q mice; drinking water, estimated 150 mg/kg/day, from 4 months of age)	selectivity for HDAC3 over HDAC2 (HDAC3-NcoR2) [fold]	IC50 (HDAC3-NcoR2; 0 min pre-incubation with enzyme, then 60 min substrate, 37°C) [nM]	IC50 (HDAC3-NcoR2; 2 h pre-incubation with enzyme (3 h incubation in total), 37°C) [nM]	IC50 (HDAC3-NcoR2; no enzyme pre-incubation, applied 120 min after preparation in aqueous buffer) [nM]	IC50 (HDAC3-NcoR2; no enzyme pre-incubation, applied immediately after preparing in aqueous buffer) [nM]	selectivity within the Class I enzymes for HDAC3 (HDAC3-NcoR2; standard screening format) [fold]	IC50 (HDAC3-NcoR2; standard screening format, free base, DMSO stock) [nM]
–	Nc1ccccc1NC(=O)CCCCCC(=O)Nc1ccccc1 [Compound 4b]	≤ 6	1.9	successfully ameliorated gene expression abnormalities	improved motor performance	~9	650	80	650	970	~6	254
3	O=C(CCCCCc1nc2ccccc2[nH]1)Nc1ccccc1 [Compound C1, 6-(1-H-benzo[d]imidazol-2-yl)-N-phenylhexanamide]	–	3.6	–	–	–	–	–	–	–	–	–
